From patent US20210393645A1, “TREATMENT FOR PROGRESSIVE MULTIPLE SCLEROSIS” (UTI LIMITED PARTNERSHIP, priority 2016, published 2021) come the findings set out here.

Structures are written as SMILES. Counter-ions that a name gives are not always drawn. Positions of bridges follow the written chain, without caps; N, C: chain ends. Non-standard residues stand in square brackets, D forms with d. Residues, ends and D or L forms follow the SMILES beside them. *: point of attachment. Ileψ(thiazoline)Cys = CC[C@H](C)[C@H](N)C1=N[C@H](C(=O)*)CS1; dOrn = NCCC[C@@H](N)C(=O)O

One assay deals with human neurons. In words: Iron (FeSO4) mediated neurotoxicity screening, MAP-2 positive neurons counted. It is filed as cell-based. To be noted: Homo sapiens, Neuron, 24 h, read-out: Drug % control (mean): number of neurons normalized to untreated control. The procedure: Human neurons were isolated from brain tissues of therapeutically aborted 15-20 week old fetuses, in accordance with ethics approval of the University of Calgary ethics committee, after written informed consent of the pregnant donors. Neurons were isolated as previously described (Vecil et al., 2000) brain specimens were washed in phosphate buffered saline (PBS) to remove blood, followed by removal of meninges. […] Thereafter, the digestion was stopped by addition of 4 ml fetal calf serum (FCS). […] Cells were cultured in feeding medium of minimal essential medium (MEM) supplemented with 10% fetal bovine serum (FBS), 1 μM sodium pyruvate, 10 μM glutamine, 1× non-essential amino acids, 0.1% dextrose and 1% penicillin/streptomycin (all culture supplements from Invitrogen, Burlington, Canada). […] For experiments, the neuron-enriched cultures were retrypsinized and cells were plated in poly-L-ornithine pre-coated 96-well plates at a density of 100,000 cells/well in 100 μl of the complete medium supplemented with cytosine arabinoside. […] All conditions were performed in quadruplicates. A day later cells were fixed using 4% paraformaldehyde (PFA) and stored in PBS in 4° C.
Briefly, there were 80 compounds located in specific wells on each plate (e. g. B07). […] Each compound was supplied at a concentration of 10 mM dissolved in DMSO.
After filtering with a 0.2 μm filter, FeSO4 was added to cells in a final concentration of 25-50 μM in a volume of 50 μl medium to the cells. Rotenone was dissolved in dimethyl sulfoxide (DMSO) and used in a final concentration of 10 μM.
Staining was performed at room temperature. A blocking buffer was first introduced for 1 h followed by incubation with primary antibody overnight in 4° C.
Cell nuclei were stained with Hoechst S769121 (nuclear yellow). Cells were stored in 4° C. in the dark before imaging.
Images were taken using the automated ImageXpress® imaging system (Molecular Devices, Sunnyvale, Calif.) through a 10x objective microscope lens, displaying 4 or 9 sites per well. […] Cells were defined according to fluorescence intensity and size at different wavelengths. Data from all sites per well were averaged to one data point.
Neurons were pre-incubated with each compound for 1 h followed by application of FeSO4.
Turning to `CN1[C@@H]2CC[C@H]1C[C@@H](OC(c1ccccc1)c1ccccc1)C2` [BENZTROPINE], the viability at 10 µM was 11.4%.
For the compound `CC1=C(C(=O)O)N2C(=O)[C@@H](NC(=O)[C@H](N)c3ccccc3)[C@H]2SC1` [CEPHALEXIN], the viability at 10 µM was determined as 38.9%.
For `O=C(O)c1cn(C2CC2)c2cc(N3CCNCC3)c(F)cc2c1=O` [CIPROFLOXACIN], the viability at 10 µM came out at 41%.

The same assay, now with this note: Homo sapiens, Neuron; drug 10 μM 1 h before FeSO4 25 or 50 μM; MAP-2 neurons after 24 h; read-out: Drug % control (mean): number of neurons normalized to untreated control.
In the case of `CCCc1nn(C)c2c(=O)[nH]c(-c3cc(S(=O)(=O)N4CCN(C)CC4)ccc3OCC)nc12`, the viability at 10 µM was 49.3%.
In the case of `OC[C@H]1O[C@@H](O[C@@H]2[C@@H](CO)OC(O)(CO)[C@H]2O)[C@H](O)[C@@H](O)[C@H]1O` (mixture of isomers) [LACTULOSE], the viability at 10 µM stood at 80.8%.
Consider `O=C(O)c1cc2cc(Cl)ccc2[nH]1` [5-CHLOROINDOLE-2-CARBOXYLIC ACID], for which the viability at 10 µM is 37.3%.
On to `CC(=O)Nc1ccc(O)cc1` [ACETAMINOPHEN], for which the viability at 10 µM worked out at 35.1%.
Consider `CC(=O)Nc1nnc(S(N)(=O)=O)s1` [ACETAZOLAMIDE], for which the viability at 10 µM worked out at 23.6%.
Turning to `CC(=O)N[C@@H](CS)C(=O)O` [ACETYLCYSTEINE], the viability at 10 µM was 21.7%.
With `Oc1ncnc2[nH]ncc12` [ALLOPURINOL], the viability at 10 µM came to 25.5%.
Take `CN(C)CCc1c[nH]c2ccc(CS(=O)(=O)N3CCCC3)cc12` [ALMOTRIPTAN]: the viability at 10 µM is 94.4%.
In the case of `CN(C)c1nc(N(C)C)nc(N(C)C)n1` [ALTRETAMINE], the viability at 10 µM amounted to 4.2%.
Take `NC12CC3CC(CC(C3)C1)C2` [AMANTADINE HYDROCHLORIDE]: the viability at 10 µM came to 52.6%.
Still for that read-out and setting: the result for `N=C(N)NC(=O)c1nc(Cl)c(N)nc1N` [AMILORIDE HYDROCHLORIDE] reads 37.1%; that for `CCCCc1oc2ccccc2c1C(=O)c1cc(I)c(OCCN(CC)CC)c(I)c1` [AMIODARONE HYDROCHLORIDE], 71.3%; that for `CN(C)CCC=C1c2ccccc2CCc2ccccc21` [AMITRIPTYLINE HYDROCHLORIDE], 34.8%.
For the compound `CCOC(=O)C1=C(COCCN)NC(C)=C(C(=O)OC)C1c1ccccc1Cl` (centres unmarked) [AMLODIPINE BESYLATE], the viability at 10 µM amounted to 93.1%.
Turning to `CC1(C)S[C@@H]2[C@H](NC(=O)[C@H](N)c3ccc(O)cc3)C(=O)N2[C@H]1C(=O)O` [AMOXICILLIN], the viability at 10 µM came to 6.41%.
Still for that read-out and setting: next, `Cc1cc(=O)n(-c2ccccc2)n1C` [ANTIPYRINE]: 2.11%; `CC(=O)Oc1ccccc1C(=O)O` [ASPIRIN]: 68.2%; `CC(C)NCC(O)COc1ccc(CC(N)=O)cc1` (centres unmarked) [ATENOLOL]: 43.4%.
Consider `O=C1C(O)=C([C@H]2CC[C@H](c3ccc(Cl)cc3)CC2)C(=O)c2ccccc21` [ATOVAQUONE], for which the viability at 10 µM was 67.7%.
`Cn1cnc([N+](=O)[O-])c1Sc1ncnc2nc[nH]c12` [AZATHIOPRINE]: the viability at 10 µM is 4.65%.
Take `CC[C@H]1OC(=O)[C@H](C)[C@@H](O[C@H]2C[C@@](C)(OC)[C@@H](O)[C@H](C)O2)[C@H](C)[C@@H](O[C@@H]2O[C@H](C)C[C@H](N(C)C)[C@H]2O)[C@](C)(O)C[C@@H](C)CN(C)[C@H](C)[C@@H](O)[C@]1(C)O` [AZITHROMYCIN]: the viability at 10 µM worked out at 56.8%.
Consider `CC[C@H](C)[C@H](N)C1=N[C@H](C(=O)N[C@@H](CC(C)C)C(=O)N[C@H](CCC(=O)O)C(=O)N[C@H](C(=O)N[C@H]2CCCCNC(=O)[C@H](CC(N)=O)NC(=O)[C@@H](CC(=O)O)NC(=O)[C@H](Cc3cnc[nH]3)NC(=O)[C@@H](Cc3ccccc3)NC(=O)[C@H]([C@@H](C)CC)NC(=O)[C@@H](CCCN)NC2=O)[C@@H](C)CC)CS1` [BACITRACIN] ({Ileψ(thiazoline)Cys}-L[dE]IK[dOrn]I[dF]H[dD]N; lactam 4-C), for which the viability at 10 µM is 5.04%.
On to `NCC(CC(=O)O)c1ccc(Cl)cc1` (centres unmarked) [BACLOFEN], for which the viability at 10 µM worked out at 35.8%.
As for `CCOC(=O)[C@H](CCc1ccccc1)N[C@H]1CCc2ccccc2N(CC(=O)O)C1=O` [BENAZEPRIL HYDROCHLORIDE], the viability at 10 µM is 72.2%.
With `CC(C[N+](C)(C)C)OC(N)=O` (centres unmarked) [BETHANECHOL CHLORIDE], the viability at 10 µM was found to be 16%.
Take `CC(C)(Oc1ccc(CCNC(=O)c2ccc(Cl)cc2)cc1)C(=O)O` [BEZAFIBRATE]: the viability at 10 µM was found to be 35.5%.
As to `CC(=O)Oc1ccc(C(c2ccc(OC(C)=O)cc2)c2ccccn2)cc1` [BISACODYL], the viability at 10 µM was 93.3%.
On the same count and under the same terms, next, `CN(C)CCC(c1ccc(Br)cc1)c1ccccn1` (centres unmarked) [BROMPHENIRAMINE MALEATE]: 79.9%.
Consider `CCCC1O[C@@H]2C[C@H]3[C@@H]4CCC5=CC(=O)C=C[C@]5(C)[C@H]4[C@@H](O)C[C@]3(C)[C@]2(C(=O)CO)O1` (some centres unmarked) [BUDESONIDE], for which the viability at 10 µM worked out at 70%.
Regarding `CCCCNc1cc(C(=O)O)cc(S(N)(=O)=O)c1Oc1ccccc1` [BUMETANIDE], the viability at 10 µM was 29.4%.
`CC(NC(C)(C)C)C(=O)c1cccc(Cl)c1` (centres unmarked) [BUPROPION]: the viability at 10 µM is 55.5%.
For the compound `CS(=O)(=O)OCCCCOS(C)(=O)=O` [BUSULFAN], the viability at 10 µM was 13.3%.
With `C[C@H](CS)C(=O)N1CCC[C@H]1C(=O)O` [CAPTOPRIL], the viability at 10 µM turned out to be 35.3%.
As for `C[N+](C)(C)CCOC(N)=O` [CARBACHOL], the viability at 10 µM stood at 8.87%.
With `NC(=O)N1c2ccccc2C=Cc2ccccc21` [CARBAMAZEPINE], the viability at 10 µM was found to be 13.3%.
On the same count and under the same terms, the result for `CCCNC(=O)NS(=O)(=O)c1ccc(Cl)cc1` [CHLORPROPAMIDE] reads 5.32%; that for `NS(=O)(=O)c1cc(C2(O)NC(=O)c3ccccc32)ccc1Cl` (centres unmarked) [CHLORTHALIDONE], 7.66%.
Regarding `CN/C(=N/CCSCc1nc[nH]c1C)NC#N` [CIMETIDINE], the viability at 10 µM came to 34.4%.
As to `CC[C@H]1OC(=O)[C@H](C)[C@@H](O[C@H]2C[C@@](C)(OC)[C@@H](O)[C@H](C)O2)[C@H](C)[C@@H](O[C@@H]2O[C@H](C)C[C@H](N(C)C)[C@H]2O)[C@](C)(OC)C[C@@H](C)C(=O)[C@H](C)[C@@H](O)[C@]1(C)O` [CLARITHROMYCIN], the viability at 10 µM stood at 55.1%.

The assay is the same for the next values; noted with them: drug 10 μM 1 h before FeSO4 25 or 50 μM; MAP-2 neurons after 24 h.
Take `CC(C)NCC(O)COc1cccc2ccccc12.Cl` (racemic) [PROPRANOLOL HYDROCHLORIDE (+/−)]: the “Drug % control (mean): number of neurons normalized to untreated control” value came out at 66.49%.
As for `NCC[C@H](O)C(=O)N[C@@H]1C[C@H](N)[C@@H](O[C@H]2O[C@H](CN)[C@@H](O)[C@H](O)[C@H]2O)[C@H](O)[C@H]1O[C@H]1O[C@H](CO)[C@@H](O)[C@H](N)[C@H]1O.O=S(=O)(O)O.O=S(=O)(O)O` [AMIKACIN SULFATE], the “Drug % control (mean): number of neurons normalized to untreated control” value came out at 35.92%.
With `CC(C)c1c(C(=O)Nc2ccccc2)c(-c2ccccc2)c(-c2ccc(F)cc2)n1CC[C@@H](O)C[C@@H](O)CC(=O)[O-].CC(C)c1c(C(=O)Nc2ccccc2)c(-c2ccccc2)c(-c2ccc(F)cc2)n1CC[C@@H](O)C[C@@H](O)CC(=O)[O-].[Ca+2]` [ATORVASTATIN CALCIUM], the “Drug % control (mean): number of neurons normalized to untreated control” value worked out at 68.87%.
Regarding `CCOc1nc2cccc(C(=O)OC(C)OC(=O)OC3CCCCC3)c2n1Cc1ccc(-c2ccccc2-c2nn[nH]n2)cc1` (centres unmarked) [CANDESARTAN CILEXTIL], the “Drug % control (mean): number of neurons normalized to untreated control” value is on record as 35.48%.
For the compound `CN(C)CC[C@@H](c1ccc(Cl)cc1)c1ccccn1.O=C(O)/C=C\C(=O)O` [CHLORPHENIRAMINE(S) MALEATE], the “Drug % control (mean): number of neurons normalized to untreated control” value is on record as 52.32%.
